# According to patent publication US7691842B2, “Tricyclic 6-alkylidene-penems as β-lactamase inhibitors” (Wyeth LLC, priority 2002, dated 2010):
# Where a name gives a salt, the structure may show the parent alone. Read-outs that look alike come from different tables or passages of the source.
# Experiments:
# [1] = target: class A β-lactamase TEM-1 (Escherichia coli, UniProt P62593); experiment: β-Lactamase inhibition, IC50 determination (nitrocefin, spectrophotometric); type: biochemical, E. Coli
# Procedure: (§1) IC50 Determination for the Penem Inhibitor
# (§2) β-Lactamase inhibitory activity of the penem inhibitors was determined spectrophotometrically as described by Bush et al., [Bush, K., Macalintal, C., Rasmussen, B. A., Lee, V. and Yang, Y. Antimicrobial Agents and Chemotherapy 1993, 37, 851]. Homogeneously purified class A β-lactamases TEM-1 from E. Coli and Imi-1 from Enterobacter cloacae, class B enzyme CcrA from Bacteroides fragilis and class C enzyme AmpC from Enterobacter cloaca were employed in the assay. The enzyme concentrations for TEM-1, Imi-1, CcrA and AmpC were 4.3, 7.1, 1.2 and 2.1 nM, respectively. A wide range of inhibitor concentrations were prepared in 50 mM PO4, pH 7.0 to include the possible IC50 values. The substrate used to initiate the enzyme reaction was nitrocefin at 50 μg/ml in the same buffer as the inhibitor. Initially the enzyme and inhibitor (20 μl each) were preincubated for 10 minutes at 25° C. prior to the addition of 160 μl volume of nitrocefin. Initial rates of hydrolysis were monitored for 5 minutes at 495 nm using a Molecular Devices Spectra Max 250 with kinetic protocol of SoftMax Program. Readings from the Spectra Max 250 were exported and transferred to Microsoft Excel. The percent of inhibition of each inhibitor concentration was calculated based on the control enzyme activity. The inhibitor concentration that caused a 50% reduction in the enzymatic activity (IC50) was determined graphically.
# [2] = target: class C enzyme AmpC (Enterobacter cloacae, UniProt P05364); experiment: biochemical; set-up: species or system Enterobacter cloaca
# Procedure: as §1, §2
# [3] = target: class A β-lactamase Imi-1 (Enterobacter cloacae, UniProt Q46991); experiment: β-Lactamase inhibition, IC50 determination (nitrocefin, spectrophotometric); type: biochemical
# Procedure: as §1, §2
# [4] = target: class B enzyme CcrA (Bacteroides fragilis, UniProt P25910); experiment: as above; type: biochemical; conditions: enzyme 1.2 nM; 10 min preincubation at 25° C.; nitrocefin 50 μg/ml; 50 mM PO4, pH 7.0; read-out: IC50 (nM) Class B Ccr
# Procedure: as §1, §2
# [5] = test system: Clinical isolates that have been adapted to cause infection in mice; experiment: In vivo antibacterial protection (7 day survival of infected mice, ED50); set-up: species or system mice strain CD-1; conditions: Mus musculus, 168 h
# Description: In Vivo Antibacterial Protection
# Female mice strain CD-1, approximately 18-22 grams, were received from Charles River Laboratories and quarantined 7 days prior to use. In addition, mice may be rendered neutropenic using cytoxan for particular studies.
# Clinical isolates that have been adapted to cause infection in mice, are used in the experiment, including infections with strains of E. coli, K. pneumoniae, M. morganii, E. cloacae, S. marcescens, C. freundii, staphylococci, streptococci, P. aeruginosa and N. gonorrhoeae.
# Mice are challenged by injecting 0.5 ml intraperitoneally or 0.05 ml intranasally of a predetermined bacterial inoculum suspended in broth, saline or hog gastric mucin (supplemented with dried bovine hemoglobin for N. gonorrhoeae). […] Antibacterial doses (dose concentration prepared by two fold serial dilutions of the antibiotic) are dissolved or suspended in 0.2% aqueous agar or methocel, phosphate buffered saline or an adjuvant are administered orally, subcutaneously or intravenously in the following manner: • a) Orally or subcutaneously: Dose volume of 0.5 ml administered ½ hr after infection. A second dose may be administered 3 hr. after infection for treatment of infections with more virulent organisms. • b) Intravenously: Dose volume of 0.2 ml, administered ½ hr. after infection. For the treatment of infections with more virulent organisms, more doses, up to 48 hr may be administered. (Intravenous dosing will not exceed 3 doses/24 hr period.) • c) Oral pretreatment: Under special circumstances, the pH of the stomach needs to be adjusted in order to increase the gastric stability of the antibiotic. For this purpose, 0.5 ml of phosphate buffered saline (pH7.8, 0.06M) (or specific approved adjuvant) is administered orally ½ hr after infection, followed 5 minutes later by 0.5 ml of antibiotic (also orally) contained in phosphate buffered saline (pH7.8, 0.06M). Animal Species
# A detailed explanation as to the number of animals needed for the determination of in vivo efficacy follows: • A) Novel antibiotics are tested at 5 different dose levels with 5 mice per dose level at each of three routes of administration (oral, subcutaneous and intravenous). […] This would require 25 mice/route with 3 routes/antibiotic or 75 mice per novel compound tested. One to two novel antibiotics will be tested per experiment (75-150 mice) • B) The effectiveness of the new compound must be compared to that of a standard, or antibiotic of known effectiveness. Known or previously tested antibiotics are tested at 5 dose levels with 5 mice per dose level by a single route of administration, for a total of 25 mice/antibiotic. Usually 3-6 antibiotics will be tested per experiment. (75-150 mice). • C) Untreated controls—In each of the above tests, untreated animals are infected with 3 different concentrations of bacterial inoculum with 10 mice per concentration (30 mice total in each and every test). These untreated controls are used to determine and maintain the infection level between 10-100 LD50s as required for test to test comparison and validity. Determination of Protective Effects of Antibacterial Agents:
# The protective effects of the antibacterial agent(s) are measured by the survival of the infected untreated as compared to the treated animals. For this determination, animals are observed for 7 days after treatment. A census of survivors is taken twice daily and at that time dead as well as moribund animals are removed. The 7 day survival ratio from three separate tests are pooled for estimation of median effective dose (ED50) by computerized program for probit analysis (Cleeland, R. and E. Squires. 1991. Evaluation of New Antimicrobials in Vitro and in Experimental Animal Infections. In Antibiotics in Laboratory Medicine”, 3rd. ed., edited by Victor Lorian. Willams and Wilkins Baltimore, Md. pp. 752-783). […]
# [6] = enzyme 4.3 nM, 10 min preincubation at 25° C., nitrocefin 50 μg/ml, 50 mM PO4, pH 7.0, read-out: IC50 (nM) Class A TEM-1
# [7] = Ratio of Piperacillin Inhibitor 2:1, read-out: ED50
# class B enzyme CcrA, sequence (P25910 19-249): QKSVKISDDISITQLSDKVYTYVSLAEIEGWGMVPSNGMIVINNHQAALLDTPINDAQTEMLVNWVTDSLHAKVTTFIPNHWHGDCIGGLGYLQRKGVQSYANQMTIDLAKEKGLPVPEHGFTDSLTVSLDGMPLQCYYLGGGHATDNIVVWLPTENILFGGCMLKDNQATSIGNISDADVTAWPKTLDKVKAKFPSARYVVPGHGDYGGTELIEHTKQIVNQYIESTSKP
# class A β-lactamase Imi-1, sequence (Q46991 entry or part of it): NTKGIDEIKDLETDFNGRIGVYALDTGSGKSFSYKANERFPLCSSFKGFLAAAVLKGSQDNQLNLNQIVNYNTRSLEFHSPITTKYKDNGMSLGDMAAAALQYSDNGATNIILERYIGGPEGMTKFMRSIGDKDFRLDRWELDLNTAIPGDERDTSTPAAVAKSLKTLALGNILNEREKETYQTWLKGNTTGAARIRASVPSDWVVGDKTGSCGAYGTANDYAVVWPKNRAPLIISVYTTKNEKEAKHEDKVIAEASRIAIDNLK
# class C enzyme AmpC, sequence (P05364 21-381): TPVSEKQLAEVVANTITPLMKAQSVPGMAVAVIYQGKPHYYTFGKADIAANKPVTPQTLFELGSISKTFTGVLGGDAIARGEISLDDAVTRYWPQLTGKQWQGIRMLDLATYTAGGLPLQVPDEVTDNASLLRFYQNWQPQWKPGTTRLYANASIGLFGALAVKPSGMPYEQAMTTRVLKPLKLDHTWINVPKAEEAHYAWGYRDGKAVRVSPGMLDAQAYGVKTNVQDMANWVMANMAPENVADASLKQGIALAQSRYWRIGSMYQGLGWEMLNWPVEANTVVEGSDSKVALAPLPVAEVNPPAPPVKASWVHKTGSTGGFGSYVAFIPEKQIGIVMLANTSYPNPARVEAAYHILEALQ
# class A β-lactamase TEM-1, sequence (P62593 24-286 limits assumed): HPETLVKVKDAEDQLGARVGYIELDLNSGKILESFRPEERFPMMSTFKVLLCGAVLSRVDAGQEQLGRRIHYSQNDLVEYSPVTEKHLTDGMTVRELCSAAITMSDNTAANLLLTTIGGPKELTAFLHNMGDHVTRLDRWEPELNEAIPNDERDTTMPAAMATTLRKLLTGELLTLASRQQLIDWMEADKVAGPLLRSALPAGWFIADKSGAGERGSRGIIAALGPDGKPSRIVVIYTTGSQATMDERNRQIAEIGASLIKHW
SMILES,"IC50 [1, 6] [nM]",IC50 [2] [µM],IC50 [3] [µM],IC50 [4] [nM],"ED50 [5, 7] [mg/kg]",IC50 [1] [nM],"ED50 ([5]; Ratio of Piperacillin Inhibitor 4:1, read-out: ED50) [mg/kg]"
"O=C(O)C1=CS[C@@H]2/C(=C\c3cn4c(n3)sc3ccccc34)C(=O)N12 [Example 1, (5R,6Z)-6-(Imidazo[2,1-b][1,3]benzothiazol-2-ylmethylene)-7-oxo-4-thia-1-azabicyclo[3.2.0]hept-2-ene-2-carboxylic acid]",10,0.0014,0.16,350,32 to 64,,
COc1ccc2c(c1)sc1nc(/C=C3/C(=O)N4C(C(=O)O)=CS[C@H]34)cn12 [Example 2],18,0.0024,0.18,250,> 64,,
"O=C(O)C1=CS[C@@H]2/C(=C\c3cn4c(ccc5ccccc54)n3)C(=O)N12 [Example 4, (5R),(6Z)-6-Imidazo[1,2-a]quinolin-2-ylmethylene-7-oxo-4-thia-1-azabicyclo[3.2.0]hept-2-ene-2-carboxylic acid]",,0.0021,0.09,900,32 to 64,6,
"O=C(O)C1=CS[C@@H]2/C(=C\c3cn4c(n3)nc3n4CCCC3)C(=O)N12 [Example 8, (5R), (6Z)-6-(4,5,6,7-tetrahydro-1,3a,3b,8-tetraaza-cyclopenta[a]indene-2-ylmethylene)-7-oxo-4-thia-1-aza-bicyclo[3.2.0]hept-2-ene-2-carboxylic acid sodium salt]",,0.0014,0.015,450,,2.4,16 to 64
